Patent US12459899B2, “Isoquinolinone derivatives, method for preparing the same, and pharmaceutical composition for preventing or treating poly(ADP-ribose) polymerase-1-related diseases, comprising the same as active ingredient” (DIGMBIO. INC., priority 2019, dated 2025)
Read-outs that look alike come from different tables or passages of the source.

Molecular target: PARP-1 (poly[ADP-ribose] polymerase 1) enzyme (Homo sapiens (Human), UniProt P09874)
Experiment: PARP-1 (poly[ADP-ribose] polymerase 1) enzyme inhibitory ability, Trevigen assay kit
Format: biochemical
Details: for IC50: PARP-1 enzyme activity
Protocol: In order to evaluate the PARP-1 (poly[ADP-ribose] polymerase 1) enzyme inhibitory ability of the compounds according to the present invention, an experiment was conducted as follows.
Specifically, in order to evaluate the PARP-1 (poly[ADP-ribose] polymerase 1) enzyme inhibitory ability of the compounds of Examples 1 to 276 according to the present invention, the PARP-1 (poly[ADP-ribose] polymerase 1) activity was investigated in the following manner using an assay kit purchased from Trevigen, Inc. (Catalog number: 4677-096-K). 50 μL of 1×PARP buffer (provided by Trevigen's kit) was dispensed into a 96-well plate coated with histones per each well, and then rehydrated for 30 minutes. After removing the 1×PARP buffer present in the well, PARP-1 (poly[ADP-ribose] polymerase 1) enzyme (0.5 unit/well) and 1 μM concentration or various concentrations of the compounds of Example 1 to 276 were added at room temperature and reacted for 10 minutes. Thereafter, each well was treated with 25 μL of 1×PARP cocktail (biotinylated NAD, activated DNA, provided by Trevigen's kit), and then reacted at room temperature for 1 hour. After the reaction was completed, each well was washed twice with PBS (7.5 mM Na2HPO4, 2.5 mM NaH2PO4, 145 mM NaCl) containing 0.1% triton X-100, and washed twice with PBS. Then, 50 μL of strep-HRP (streptavidin-linked peroxidase) was added and reacted at room temperature for 1 hour, and then washed twice with PBS containing 0.1% triton X-100, and washed twice with PBS. After removing all PBS, 50 μL of TACS-sapphire, a substrate, was added, and reacted at room temperature for 15 minutes while blocking the light. After the reaction was terminated by treatment with 50 μL of 5% phosphoric acid to each well, the absorbance was measured at 450 nm using a microplate reader Victor3 from PerkinElmer, Inc. to quantify the value.

[1] = 1 nM compound, read-out: PAR P-1 Inhibitory ability at 1 nM

PARP-1 (poly[ADP-ribose] polymerase 1) enzyme, sequence (P09874 whole entry): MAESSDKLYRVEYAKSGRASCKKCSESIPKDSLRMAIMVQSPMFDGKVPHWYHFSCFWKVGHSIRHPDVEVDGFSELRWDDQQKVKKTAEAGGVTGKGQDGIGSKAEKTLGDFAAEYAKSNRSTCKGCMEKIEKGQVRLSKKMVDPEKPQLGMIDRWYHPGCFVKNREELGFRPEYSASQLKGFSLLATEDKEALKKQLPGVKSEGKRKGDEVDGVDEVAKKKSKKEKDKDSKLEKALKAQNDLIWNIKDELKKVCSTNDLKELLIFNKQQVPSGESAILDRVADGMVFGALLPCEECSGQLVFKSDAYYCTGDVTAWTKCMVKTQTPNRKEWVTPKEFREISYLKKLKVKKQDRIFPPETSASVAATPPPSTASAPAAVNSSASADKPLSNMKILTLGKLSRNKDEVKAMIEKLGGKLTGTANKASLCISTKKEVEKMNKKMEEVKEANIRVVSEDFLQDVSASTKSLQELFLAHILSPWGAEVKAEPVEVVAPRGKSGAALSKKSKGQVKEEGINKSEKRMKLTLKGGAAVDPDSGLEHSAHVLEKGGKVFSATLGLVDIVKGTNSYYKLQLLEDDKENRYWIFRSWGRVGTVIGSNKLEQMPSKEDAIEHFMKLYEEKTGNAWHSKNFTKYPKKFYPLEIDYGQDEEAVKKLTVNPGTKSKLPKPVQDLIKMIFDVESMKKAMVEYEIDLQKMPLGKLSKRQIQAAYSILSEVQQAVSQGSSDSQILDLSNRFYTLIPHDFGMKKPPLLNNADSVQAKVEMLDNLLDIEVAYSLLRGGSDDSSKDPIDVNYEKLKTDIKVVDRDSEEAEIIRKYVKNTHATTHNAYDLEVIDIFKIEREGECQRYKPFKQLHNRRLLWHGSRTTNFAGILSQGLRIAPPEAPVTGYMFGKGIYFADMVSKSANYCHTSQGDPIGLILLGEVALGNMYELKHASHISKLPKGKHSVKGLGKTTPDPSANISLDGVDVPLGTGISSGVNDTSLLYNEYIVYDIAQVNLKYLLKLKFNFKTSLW

Row | SMILES | inhibition at 0.001 µM [1] | inhibition at 0.001 µM (1 nM (Table 2), read-out: inhibited PARP-1 enzyme activity) | IC50
1 | Cc1cc(F)cc2c(=O)[nH]c(CCCN3CCN(c4ccc(C#N)cc4F)CC3)cc12 [Example 37, 3-fluoro-4-(4-(3-(7-fluoro-5-methyl-1-oxo-1,2-dihydroisoquinolin-3-yl)propyl)piperazin-1-yl)benzonitrile] | < 50% |  | 
2 | Cc1cc(F)cc2c(=O)[nH]c(CCCN3CCN(c4ccc(C#N)c(F)c4)CC3)cc12 [Example 38, 2-fluoro-4-(4-(3-(7-fluoro-5-methyl-1-oxo-1,2-dihydroisoquinolin-3-yl)propyl)piperazin-1-yl)benzonitrile] | < 50% |  | 
3 | Cc1cc(F)cc2c(=O)[nH]c(CCCN3CCN(c4ccc(C(F)(F)F)cc4)CC3)cc12 [Example 39, 7-fluoro-5-methyl-3-(3-(4-(4-(trifluoromethyl)phenyl)piperazin-1-yl)propyl)isoquinolin-1(2H)-one] | < 50% |  | 
4 | Cc1cc(F)cc2c(=O)[nH]c(CCCN3CCN(c4ccc(F)cc4)CC3)cc12 [Example 40, 7-fluoro-3-(3-(4-(4-fluorophenyl)piperazin-1-yl)propyl)-5-methylisoquinolin-1(2H)-one] | 50 to 80% |  | 
5 | N#Cc1ccc(C2=CCN(CCCc3cc4cccc(F)c4c(=O)[nH]3)CC2)cc1 [Example 41, 4-(1-(3-(8-fluoro-1-oxo-1,2-dihydroisoquinolin-3-yl)propyl)-1,2,3,6-tetrahydropyridin-4-yl)benzonitrile] | 50 to 80% |  | 
6 | O=c1[nH]c(CCCN2CC=C(c3ccc(F)cc3)CC2)cc2cccc(F)c12 [Example 42, 8-fluoro-3-(3-(4-(4-fluorophenyl)-3,6-dihydropyridin-1(2H)-yl)propyl)isoquinolin-1(2H)-one] | 50 to 80% |  | 
7 | O=c1[nH]c(CCCN2CC=C(c3ccc(F)nc3)CC2)cc2cccc(F)c12 [Example 43] | < 50% |  | 
8 | O=c1[nH]c(CCCN2CC=C(c3ccc(F)cn3)CC2)cc2cccc(F)c12 [Example 44, 8-fluoro-3-(3-(5-fluoro-3′,6′-dihydro-[2,4′-bipyridine]-1′(2′H)-yl)propyl)isoquinolin-1(2H)-one] | < 50% |  | 
9 | O=c1[nH]c(CCCN2CC=C(c3ccc(C(F)(F)F)cc3)CC2)cc2cccc(F)c12 [Example 45, 8-fluoro-3-(3-(4-(4-(trifluoromethyl)phenyl)-3,6-dihydropyridin-1(2H)-yl)propyl)isoquinolin-1(2H)-one] | 50 to 80% |  | 
10 | N#Cc1ccc(C2=CCN(CCCc3cc4ccc(F)cc4c(=O)[nH]3)CC2)cc1 [Example 47, 4-(1-(3-(7-fluoro-1-oxo-1,2-dihydroisoquinolin-3-yl)propyl)-1,2,3,6-tetrahydropyridin-4-yl)benzonitrile] | > 80% | ≥ 80% | 
11 | O=c1[nH]c(CCCN2CC=C(c3ccc(F)cc3)CC2)cc2ccc(F)cc12 [Example 48, 7-fluoro-3-(3-(4-(4-fluorophenyl)-3,6-dihydropyridin-1(2H)-yl)propyl)isoquinolin-1(2H)-one] | < 50% |  | 1.32 nM
12 | O=c1[nH]c(CCCN2CC=C(c3ccc(Cl)cc3)CC2)cc2ccc(F)cc12 [Example 49, 3-(3-(4-(4-chlorophenyl)-3,6-dihydropyridin-1(2H)-yl)propyl)-7-fluoroisoquinolin-1(2H)-one] | < 50% |  | 3.58 nM
13 | N#Cc1ccc(C2=CCN(CCCc3cc4ccc(F)cc4c(=O)[nH]3)CC2)nc1 [Example 50, 1′-(3-(7-fluoro-1-oxo-1,2-dihydroisoquinolin-3-yl)propyl)-1′,2′,3′,6′-tetrahydro-[2,4′-bipyridine]-5-carbonitrile] | < 50% |  | 1.88 nM
14 | N#Cc1ccc(C2=CCN(CCCc3cc4ccc(F)cc4c(=O)[nH]3)CC2)cc1F [Example 52, 2-fluoro-4-(1-(3-(7-fluoro-1-oxo-1,2-dihydroisoquinolin-3-yl)propyl)-1,2,3,6-tetrahydropyridin-4-yl)benzonitrile] | < 50% |  | 
15 | Cc1ccc(F)c2c(=O)[nH]c(CCCN3CC=C(c4ccc(F)cc4)CC3)cc12 [Example 53, 8-fluoro-3-(3-(4-(4-fluorophenyl)-3,6-dihydropyridin-1(2H)-yl)propyl)-5-methylisoquinolin-1(2H)-one] | < 50% |  | 
16 | Cc1ccc(F)c2c(=O)[nH]c(CCCN3CC=C(c4ccc(C#N)cc4)CC3)cc12 [Example 54, 4-(1-(3-(8-fluoro-5-methyl-1-oxo-1,2-dihydroisoquinolin-3-yl)propyl)-1,2,3,6-tetrahydropyridin-4-yl)benzonitrile] | < 50% |  | 1.42 nM
17 | Cc1ccc(F)c2c(=O)[nH]c(CCCN3CC=C(c4ccc(C#N)c(F)c4)CC3)cc12 [Example 55, 2-fluoro-4-(1-(3-(8-fluoro-5-methyl-1-oxo-1,2-dihydroisoquinolin-3-yl)propyl)-1,2,3,6-tetrahydropyridin-4-yl)benzonitrile] | 50 to 80% |  | 1.77 nM
18 | Cc1ccc(F)c2c(=O)[nH]c(CCCN3CC=C(c4ccc([N+](=O)[O-])cc4F)CC3)cc12 [Example 56, 8-fluoro-3-(3-(4-(2-fluoro-4-nitrophenyl)-3,6-dihydropyridin-1(2H)-yl)propyl)-5-methylisoquinolin-1(2H)-one] | < 50% |  | 
19 | Cc1ccc(F)c2c(=O)[nH]c(CCCN3CC=C(c4ccc(C#N)cn4)CC3)cc12 [Example 57, 1′-(3-(8-fluoro-5-methyl-1-oxo-1,2-dihydroisoquinolin-3-yl)propyl)-1′,2′,3′,6′-tetrahydro-[2,4′-bipyridine]-5-carbonitrile] | 50 to 80% |  | 0.91 nM
20 | Cc1cc(F)cc2c(=O)[nH]c(CCCN3CC=C(c4ccc(C#N)cc4)CC3)cc12 [Example 58, 4-(1-(3-(7-fluoro-5-methyl-1-oxo-1,2-dihydroisoquinolin-3-yl)propyl)-1,2,3,6-tetrahydropyridin-4-yl)benzonitrile] | 50 to 80% |  | 1.76 nM
21 | Cc1cc(F)cc2c(=O)[nH]c(CCCN3CC=C(c4ccc(F)cc4)CC3)cc12 [Example 59, 7-fluoro-3-(3-(4-(4-fluorophenyl)-3,6-dihydropyridin-1(2H)-yl)propyl)-5-methylisoquinolin-1(2H)-one] | < 50% |  | 
22 | Cc1cc(F)cc2c(=O)[nH]c(CCCN3CC=C(c4ccc(C#N)cn4)CC3)cc12 [Example 60, 1′-(3-(7-fluoro-5-methyl-1-oxo-1,2-dihydroisoquinolin-3-yl)propyl)-1′,2′,3′,6′-tetrahydro-[2,4′-bipyridine]-5-carbonitrile] | < 50% |  | 
23 | Cc1cc(F)cc2c(=O)[nH]c(CCCN3CC=C(c4ccc(F)cn4)CC3)cc12 [Example 62, 7-fluoro-3-(3-(5-fluoro-3′,6′-dihydro-[2,4′-bipyridine]-1′(2′H)-yl)propyl)-5-methylisoquinolin-1(2H)-one] | < 50% |  | 
24 | Cc1cc(F)cc2c(=O)[nH]c(CCCN3CC=C(c4ccc(F)nc4)CC3)cc12 [Example 63, 7-fluoro-3-(3-(6-fluoro-3′,6′-dihydro-[3,4′-bipyridine]-1′(2′H)-yl)propyl)-5-methylisoquinolin-1(2H)-one] | < 50% |  | 
25 | Cc1cc(F)cc2c(=O)[nH]c(CCCN3CC=C(c4ccc(C(F)(F)F)cc4)CC3)cc12 [Example 64, 7-fluoro-5-methyl-3-(3-(4-(4-(trifluoromethyl)phenyl)-3,6-dihydropyridin-1(2H)-yl)propyl)isoquinolin-1(2H)-one] | < 50% |  | 
